Source: patent US20250002526A1, “PHARMACEUTICAL COMPOSITION HAVING ANTI-CANCER IMMUNOSTIMULATING EFFECT AND/OR IMMUNE CHECKPOINT INHIBITION POTENTIATING EFFECT” (KYUSHU UNIVERSITY, NATIONAL UNIVERSITY CORPORATION, priority 2021, published 2025)
Counter-ions that a name gives are not always drawn. Like-named read-outs stand apart in the source and are kept apart here.

Key:
[1] = target: T1, recombinant human SULT2B1b protein (Homo sapiens, UniProt O00204); assay: SULT assay (in vitro SULT2B1b enzymatic activity measurement); format: biochemical; details: for activity at 200 µM: read-out: in vitro SULT2B1b assay % activity at 200 μM
T1 sequence (O00204 1-365): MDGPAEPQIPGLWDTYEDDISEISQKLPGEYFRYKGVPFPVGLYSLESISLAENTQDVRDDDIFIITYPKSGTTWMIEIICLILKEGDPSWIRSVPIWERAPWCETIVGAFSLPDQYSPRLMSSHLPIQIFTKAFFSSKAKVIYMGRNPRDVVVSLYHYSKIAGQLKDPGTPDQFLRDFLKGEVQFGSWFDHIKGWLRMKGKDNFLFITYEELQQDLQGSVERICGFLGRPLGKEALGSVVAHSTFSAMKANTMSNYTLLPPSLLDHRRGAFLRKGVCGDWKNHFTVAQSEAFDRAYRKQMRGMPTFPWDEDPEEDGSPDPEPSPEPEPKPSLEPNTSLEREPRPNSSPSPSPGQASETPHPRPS
Protocol: For screening for a SULT2B1b inhibitor, enzymatic activity measurement for SULT2B1b was carried out by a method described in a previous report (NPL 2) with slight modifications.
The reaction solution (50 μl) was composed of 1 to 5 μg of recombinant human SULT2B1b protein, 10 μM [^3H]cholesterol (approximately 4,000 dpm/pmol), 10 mM Tris-HCl (pH 7.5, containing 5 mM MgCl2) containing 0.1 mM 3′-phosphoadenosine 5′-phosphosulfate (PAPS), 0.2 mM 2-hydroxypropyl-β-cyclodextrin, and 5% (v/v) ethanol. Recombinant human SULT2B1b protein was pre-incubated with 1 μl of a test compound (final concentration: 40 or 200 μM) or DMSO (control) at room temperature for 15 minutes, 2 mM PAPS (2.5 μl) was then added to initiate reaction, the resultant was reacted at 37° C. for 15 minutes, and 0.8 ml of ethanol was added to terminate the reaction.
The solution after the reaction was subjected to thin-layer chromatography (TLC) for separation, and then to a liquid scintillation counter to quantify radiolabeled CS.
From the percentage to the amount ([…]) of radiolabeled CS generated through reaction in the absence of the test compound (DMSO) (control), the SULT2B1b activity (% activity) of SULT2B1b protein in the presence of the test compound was evaluated, and the effect of the test compound to inhibit SULT2B1b-mediated CS production (CS production inhibitory effect) was evaluated.
In enzyme assay, SULT assay was performed with use of cholenoic acid as a compound to be tested at different cholesterol and PAPS concentrations (wherein 0.5 to 1 μg of recombinant human SULT2B1b protein was used, the preincubation time and reaction time were each 10 minutes), and the results were fitted to the Michaelis-Menten equation by using Prism 9 (GraphPad Software, Inc.) to perform enzyme kinetic analysis for the inhibition by cholenoic acid.
SULT assay was performed for the compounds as test compounds by the method described in (14) of “II. Experimental procedure” in Experiment Example 1 to evaluate the SULT2B1b inhibitory effects of the compounds.

[2] = system: SULT2B1b-mediated CS production in E0771-SULT cells; assay: CS production inhibitory effect in E0771-SULT cells (LC/MS/MS quantification of CS); format: cell-based, mouse; details: Mus musculus; for activity at 10 µM: relative to control (100%); for activity at 20 µM: relative to control without compound (100%); for IC50: read-out: IC50 value (CS production)
Protocol: CS in each human cancer tissue sample was quantified by a method described in NPL 2. To monitor the amounts of CS and/or oxysterol generated in E0771, 3LL, EG.7-OVA, and MC38 cells irrespective of the presence or absence of SULT2B1b expression, cells of each type were seeded in a 6-well plate at 5×10^5 cells/well, and the culture supernatant and cell pellet were collected after 24 hours. Subsequently, deuterium-labeled internal standard (IS) compounds (d7-CS [[…]] and d6-25-hydroxycholesterol) were added to fractions of the culture supernatant and cell pellet, each of which was subjected to extraction with 1 mL of extraction solvent (methanol/chloroform/water=5:2:2 [v/v/v]) to extract CS and oxysterol from the culture supernatant or cell pellet.
Each sample was vigorously mixed with a vortex for 1 minute, and then ultrasonicated for 5 minutes. Thereafter, the sample was centrifuged at 16,000×g and 4° C. for 5 minutes, and the supernatant (700 μl) was collected in a clean tube. Into this, 235 μl of chloroform and 155 μl of water were added and mixed, and the resultant was then subjected to vortexing followed by centrifugation to separate into an aqueous layer and an organic layer. Subsequently, 200 μl of the lowermost layer was dried under a nitrogen flow.
The dried sample was dissolved in 50 μl of methanol, and CS and oxysterol therein were quantified by liquid chromatography-tandem mass spectrometry (LC/MS/MS) with a triple quadrupole mass spectrometer (LCMS-8060; Shimadzu Corporation) equipped with an electrospray ionization (ESI) ion source in a multiple reaction monitoring (MRM) mode.
• Column: Inertsil ODS-4 (2.1×150 mm; particle size: 3 μm; GL Sciences Inc.) • Column temperature: 40° C. • Flow rate: 0.3 ml/min • Mobile phase: (A) water/acetonitrile (1:2, v/v) containing 5 mM ammonium acetate (B) Methanol/Isopropanol (1:19, v/v) Containing 5 mM Ammonium Acetate • Gradient curve: 0 min→22 min: (B) 0%→100%, • 22 min→27 min: (B) 100%, • 27 min→27.1 min: (B) 100%→0%, • 27.1 min→30 min: (B) 0% • Injection volume: 5 μl • Mass spectrometry mode: positive and negative ion modes • Electrospray voltage: 4 kV in positive ion mode, −3.5 kV in negative ion mode • Nebulizer gas flow rate: 3.0 L/min • Drying gas flow rate: 10.0 L/min • Desolvation temperature: 250° C. • Heat block temperature: 400° C. • Detector voltage: 2.16 kV • Used were MRM mode and 2 msec of dwell time per channel.
Absolute CS and oxysterol contents were calculated from calibration curves. MRM calibration curves were prepared with chromatographic peak areas for the analytes relative to peak areas for internal standards through three times of analysis for standard solutions.
The CS production effects of test compounds (compounds 1 to 19, 21, 23, 25, and 27 to 32) were evaluated with the mouse breast cancer cell line E0771 expressing SULT2B1b (E0771-SULT cells).
Specifically, as in the above description in experimental procedure (12), E0771-SULT cells were seeded in a 6-well plate at a proportion of 5×10^5 cells/well, and cultured in the presence or absence (control) of each test compound for 24 hours. After culturing, CS generated in E0771-SULT cells was quantified by LC/MS/MS according to the description in experimental procedure (12). The CS production capacity (% activity) of cells cultured in the presence of each test compound was evaluated from the percentage relative to the CS production level (control) (100%) in E0771-SULT cells cultured in the absence of the test compound, and the CS production inhibitory effect of the test compound was evaluated.

[3] = test compound 200 μM, relative to DMSO control (100%)
[4] = 24 h, read-out: CS production % activity at 10 μM, E0771-SULT cells, 24 hours, test compound 10 μM (Table 1)
[5] = 24 h, read-out: CS production % activity at 10 μM, E0771-SULT cells, 24 hours, third concentration column of Table 1, head again printed 10 μM
[6] = 24 h, read-out: CS production % activity at 20 μM, E0771-SULT cells, 24 hours, test compound 20 μM

| Structure (SMILES) | activity at 200 µM [1, 3] [%] | activity at 10 µM [2, 4] [%] | activity at 10 µM [2, 5] [%] | activity at 20 µM [2, 6] [%] | IC50 [2] [µM] | also measured |
| --- | --- | --- | --- | --- | --- | --- |
| COC(=O)CC[C@@H](C)[C@H]1CC[C@H]2[C@@H]3CC=C4C[C@@H](OC(=O)C(F)(F)F)CC[C@]4(C)[C@H]3CC[C@]12C [Compound 4, methyl (R)-4-((3S,8S,9S,10R,13R,14S,17R)-10,13-dimethyl-3-(2,2,2-trifluoroacetoxy)-2,3,4,7,8,9,10,11,12,13,14,15,16,17-tetradecahydro-1H-cyclopenta[a]phenanthren-17-yl)pentanoate] | – | – | – | – | – | activity at 200 µM [1]: 13.6%; activity at 10 µM ([2]; 24 h, E0771-SULT cells, 24 hours, test compound 10 μM (Table 1), read-out: CS production % activity at 10 μM): 79.2%; activity at 20 µM ([2]; 24 h, E0771-SULT cells, 24 hours, test compound 20 μM, read-out: CS production % activity at 20 μM): 49.9%; activity at 10 µM ([2]; 24 h, E0771-SULT cells, 24 hours, third concentration column of Table 1, head again printed 10 μM, read-out: CS production % activity at 10 μM): 104%; IC50 ([2]; E0771-SULT cells): 20 µM |
| CCCCNC(=O)CC[C@@H](C)[C@H]1CC[C@H]2[C@@H]3CC=C4C[C@@H](OC(=O)C(F)(F)F)CC[C@]4(C)[C@H]3CC[C@]12C [Compound 8, (3S,8S,9S,10R,13R,14S,17R)-17-((R)-5-(butylamino)-5-oxopentan-2-yl)-10,13-dimethyl-2,3,4,7,8,9,10,11,12,13,14,15,16,17-tetradecahydro-1H-cyclopenta[a]phenanthren-3-yl 2,2,2-trifluoroacetate] | 10.7 | 70.6 | 83.6 | 60.2 | 42.5 | – |
| COC(=O)CC[C@@H](C)[C@H]1CC[C@H]2[C@@H]3CC=C4C[C@@H](O)CC[C@]4(C)[C@H]3CC[C@]12C [Compound 3, methyl (R)-4-((3S,8S,9S,10R,13R,14S,17R)-3-hydroxy-10,13-dimethyl-2,3,4,7,8,9,10,11,12,13,14,15,16,17-tetradecahydro-1H-cyclopenta[a]phenanthren-17-yl)pentanoate] | – | 48.1 | 61.4 | 56.8 | 17.3 | activity at 200 µM [1]: 19% |
| C[C@H](CCC(=O)N(Cc1ccccc1)Cc1ccccc1)[C@H]1CC[C@H]2[C@@H]3CC=C4C[C@@H](OC(=O)C(F)(F)F)CC[C@]4(C)[C@H]3CC[C@]12C [Compound 7, (3S,8S,9S,10R,13R,14S,17R)-17-((R)-5-(dibenzylamino)-5-oxopentan-2-yl)-10,13-dimethyl-2,3,4,7,8,9,10,11,12,13,14,15,16,17-tetradecahydro-1H-cyclopenta[a]phenanthren-3-yl 2,2,2-trifluoroacetate] | 6.4 | 59 | 74.6 | 57.8 | 17.3 | – |
| C[C@H](CCC(=O)O)[C@H]1CC[C@H]2[C@@H]3CC[C@@H]4C[C@H](O)CC[C@]4(C)[C@H]3CC[C@]12C [Compound 14, (4R)-4-[(3R,5R,8R,9S,10S,13R,14S,17R)-3-hydroxy-10,13-dimethyl-2,3,4,5,6,7,8,9,11,12,14,15,16,17-tetradecahydro-1H-cyclopenta[a]phenanthren-17-yl]pentanoic acid] | – | – | – | – | – | activity at 20 µM ([2]; E0771-SULT cells, 24 hours, test compound 20 μM, read-out: CS production % activity at 20 μM): 31.5%; activity at 10 µM ([2]; E0771-SULT cells, 24 hours, third concentration column of Table 1, head again printed 10 μM, read-out: CS production % activity at 10 μM): 62%; IC50 ([2]; E0771-SULT cells): 7.2 µM |
| CC(=O)OC1CCC2(C)C(=CCC3C2CCC2(C)C(C(C)CCC(=O)O)CCC32)C1 (centres unmarked) [Compound 17, 3-acetoxy-5-cholenoic acid] | 66.4 | 43.7 | 44.9 | 52.4 | 7 | IC50 ([1]; recombinant human SULT2B1b, read-out: IC50 value (enzyme assay)): 186 µM |
| CC(CCC(=O)N1CCSCC1)C1CCC2C3CC=C4CC(O)CCC4(C)C3CCC12C [Compound 9, (R)-4-((3S,8S,9S,10R,13R,14S,17R)-3-hydroxy-10,13-dimethyl-2,3,4,7,8,9,10,11,12,13,14,15,16,17-tetradecahydro-1H-cyclopenta[a]phenanthren-17-yl)-1-thiomorpholinopentan-1-one] | – | – | – | 87.2 | – | – |
| C#CCOCCNC(=O)CC[C@@H](C)[C@H]1CC[C@H]2[C@@H]3CC=C4C[C@@H](OS(=O)(=O)O)CC[C@]4(C)[C@H]3CC[C@]12C [Compound 21, (3S,8S,9S,10R,13R,14S,17R)-10,13-dimethyl-17-((R)-5-oxo-5-((2-(prop-2-yn-1-yloxy)ethyl)amino)pentan-2-yl)-2,3,4,7,8,9,10,11,12,13,14,15,16,17-tetradecahydro-1H-cyclopenta[a]phenanthren-3-yl sulfate] | – | – | – | 85.7 | – | – |
| CC(=O)C1=CC[C@H]2[C@@H]3CC[C@H]4C[C@H](OC(=O)CCN5CCOCC5)CC[C@]4(C)[C@H]3CC[C@]12C [Compound 16, (3R,5S,8R,9S,10S,13S,14S)-17-acetyl-10,13-dimethyl-2,3,4,5,6,7,8,9,10,11,12,13,14,15-tetradecahydro-1H-cyclopenta[a]phenanthren-3-yl3-morpholinopropanoate] | – | 49.9 | 55.7 | 42.3 | 9.6 | – |
